Read-outs that look alike come from different tables or passages of the source.
How the values were obtained:
[1] = Microsomal stability, mouse liver microsomes; type: in vitro ADME; details: male, CD-1, mouse, pH 7.4; murine liver microsomes; read-out: CLint mLM
Description: Tested compounds (1 μM) were incubated with pooled human liver microsomes (Xenotech; pooled male and female) and pooled mouse liver microsomes (Xenotech; male CD-1 mice).
Microsomes (final protein concentrations of 0.25 and 0.5 mg/ml, 0.1 M phosphate buffer pH 7.4) containing tested compound (final substrate concentration 1 μM; final DMSO concentration 0.25 %) were preincubated at 37 °C prior to the addition of NADPH (final concentration 1 mM) to initiate the reaction. The final incubation volume was 200 μl. 3 species-specific control compounds were included with each species. At 5 time points (0, 5, 10, 20, and 40 min), reactions were stopped by transferring 50 μl of the incubation mixture into 0.5 μM carbamazepine in acetonitrile. Tested compound concentrations were analyzed by LC-MS/MS and the resulting data were used to determine the half-life and intrinsic clearance of the compound in each

NAF-1 = target: T1, NAF-1 (Homo sapiens, UniProt Q8N5K1); assay: In vitro NEET [2Fe-2S] cluster release, NAF-1; type: biochemical; details: recombinant NAF-1, 37 °C, absorbance 460 nm
T1 construct: MitoNEET ([60]) and NAF-1 ([61]) cytosolic domains and MiNT ([62]) were purified from E. coli as previously published; made in house; host or cells: E. coli
T1 sequence (Q8N5K1 61-135 limits assumed): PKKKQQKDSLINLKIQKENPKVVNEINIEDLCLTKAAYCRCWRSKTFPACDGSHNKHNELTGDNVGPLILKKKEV
Description: (§1) MitoNEET ([60]) and NAF-1 ([61]) cytosolic domains and MiNT ([62]) were purified from E. coli as previously published. Experiments were performed in 96-well plates at 37 °C with […] of Fe-S cluster in a buffer composed of 50 mM Tris-HCl pH 7 and 100 mM NaCl. dEF3122 was dissolved in dimethyl sulfoxide (DMSO) at 10 mM. CPEP31 was dissolved in PBS at 10 mM. After 20 min of incubation of the protein with the molecule, NEET cluster release was followed by measuring the absorbance at 460 and 800 nm over time using a plate reader (SpectraMax ID3). The absorbance at 460 nm was corrected for the variation of the baseline (absorbance at 800 nm) over time and normalized at 1 at the beginning of the kinetics.

[2] = Cryopreserved hepatocyte stability, mouse; type: in vitro ADME; details: cryopreserved hepatocytes, murine hepatocytes, read-out: CLint mHep
Description: Cryopreserved hepatocyte stability
Tested compounds (1 μM) were incubated with human cryopreserved hepatocytes (pool of 5) (IVT Celsis) and mouse cryopreserved hepatocytes (IVT Celsis). Hepatocytes (1, 0.5 or 0.25 x10^6 cells/mL, Williams’ Medium E (WME) with 4 mM L-glutamine and 2 mM magnesium sulphate) containing tested compound (final substrate concentration 1 μM; final DMSO concentration 0.25 %) were preincubated at 37 °C. The final incubation volume was 500 μl. 3 species-specific control compounds were included with each species. At 7 time points (0, 10, 20, 40, 60, 90, and 120 min), reactions were stopped by transferring 50 μl of the incubation mixture into 0.5 μM carbamazepine in cold acetonitrile. Tested compound concentrations were analyzed by LC-MS/MS and the resulting data were used to determine the half-life and intrinsic clearance of the compound in each species. […]

in vivo [3] = details: male, Sprague Dawley, rat, 50 mg/kg, 50 mg/kg per os
Description: For this molecule, both antiviral potency (IC50 of 3 nM) and PK properties were improved, with low clearance and high exposure in mouse plasma. […] The tissue distribution was also assessed at two different time points (2 and 24 h) after per os administration in mice (20 mg/kg) and rats (50 mg/kg) (Fig. 5C). […] Such low lung/plasma ratio precluded the use of dEF3122 in respiratory diseases such as influenza without further optimization.

in vivo [4] = details: male, CD1, mouse, 20 mg/kg, 20 mg/kg per os
[5] = Plasma protein binding by equilibrium dialysis, murine; type: in vitro ADME; details: mouse, read-out: PPB (% bound)
Description: The free and bound fractions of the tested compounds in mouse and human plasma were determined by equilibrium dialysis using a 96-well Teflon dialysis unit (HTDialysis plate complete unit, HT Dialysis, USA). The HTDialysis plate complete unit consists of a 96-well plate with wells vertically bisected by a semipermeable membrane (membranes strips 12 to 14 kDa) creating two chambers. A 125 μL aliquot of plasma containing tested compound at 10 μM was placed on one side and 125 μL of Dulbecco‘s phosphate buffered saline (D-PBS) on the other. The plate was incubated at 37 °C for 6 hr under gentle agitation. Then, samples from both plasma and buffer compartment were analyzed by a LC-MS/MS method to measure the free fraction and the bound fraction to the plasma proteins. […]

MitoNEET = target: T2, MitoNEET (Homo sapiens, UniProt Q9NZ45); assay: In vitro NEET [2Fe-2S] cluster release, MitoNEET; type: biochemical; details: recombinant MitoNEET, 37 °C, absorbance 460 nm
T2 construct: MitoNEET ([60]) and NAF-1 ([61]) cytosolic domains and MiNT ([62]) were purified from E. coli as previously published; made in house; host or cells: E. coli
T2 sequence (Q9NZ45 32-108 limits assumed): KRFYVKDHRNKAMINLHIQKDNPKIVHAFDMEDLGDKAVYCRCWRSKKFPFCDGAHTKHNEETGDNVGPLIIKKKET
Description: as §1

PK parameters in mice = type: in vivo, male Swiss (CD-1) mice; details: mouse
Description: PK parameters and tissue distribution in mice
The pharmacokinetic profiles of the tested compounds were evaluated in male Swiss (CD-1) mice around 5-6 weeks old (3 animals per sampling time). […]
0.2 % Tween 80 in water. Blood samples were collected (0.25 mL) from the sinus retro-orbital […]
24 hr for p.o. route. The blood samples were immediately centrifuged at 2500 rpm at +4 °C, and the plasma was stored at −80 °C. 50 μL of plasma sample was taken and 150 μL of acetonitrile was added. After protein precipitation, analysis of the molecule was performed using LC-MS/MS to determine plasma compound concentration. For liver and lung collection, 3 animals per group were involved and sampled after 2 hr and 24 hr upon 20 mg/kg p.o. administration. Animals were perfused with around 10 mL of saline solution directly into the heart to extract the maximal blood sample from the liver and the lung. Animals were then sacrificed by cervical dislocation and liver

Compound: O=C(Nc1scc(C2CCc3ccccc3C2)c1C(=O)O)c1ccccc1 (stereo not shown) [dEF3122]
- microsomal CLint at 1 µM [1]: 24 µL/min/mg
- interaction by [2Fe-2S] cluster release assay (NAF-1): validated the interaction
- hepatocyte CLint at 1 µM [2]: < 5 µL/min/1e6 cells
- Kp (in vivo [3]; 2 h, read-out: Liver:Plasma Ratio): 0.91
- Kp (in vivo [3]; 2 h, read-out: Lung:Plasma Ratio): 0.11
- Kp (in vivo [3]; 24 h, read-out: Liver:Plasma Ratio): 0.78
- Kp (in vivo [3]; 24 h, read-out: Lung:Plasma Ratio): 0.18
- Kp (in vivo [4]; Liver:Plasma Ratio, 2 h): 0.45
- Kp (in vivo [4]; Liver:Plasma Ratio, 24 h): 0.88
- Kp (in vivo [4]; Lung:Plasma Ratio, 2 h): 0.12
- Kp (in vivo [4]; Lung:Plasma Ratio, 24 h): 0.13
- fraction unbound at 6 h, 10 µM [5]: 0.001
- interaction by [2Fe-2S] cluster release assay (MitoNEET): validated the interaction
- Cmax (PK parameters in mice; male, Swiss (CD-1), plasma, po 2 mg/kg (dose for AUC)): 1600 ng/mL
- bioavailability (PK parameters in mice; male, Swiss (CD-1), plasma, po 2 mg/kg, iv 0.25 mg/kg): 36%
- plasma concentration reached after oral administration, molar equivalent (PK parameters in mice; po 2 mg/kg): 2600 nM

From publication PMC10835127, “Viruses traverse the human proteome through peptide interfaces that can be biomimetically leveraged for drug discovery” (Proceedings of the National Academy of Sciences of the …, 2024)
